# Measurements as given in US20090029949A1, “GPCR Ligands Identified by Computational Modeling” (priority 2006, published 2009).
# Read-outs that look alike come from different tables or passages of the source.
# Assays:
# [1] = biological target: T1, S1P1 mutant L5.52A (Homo sapiens, UniProt P21453, L214A); assay: [35S]GTPγS binding, S1P1 L5.52A; assay type: biochemical; details: S1P-induced, S1P1 L5.52A in RH7777 cells
# T1 construct: expressed in transfected cells; host or cells: RH7777
# Description: (§1) RH7777 and HEK-293 cells (ATCC, Manassas, Va.) were maintained in Dulbecco's modified minimal essential medium (DMEM) containing 10% fetal bovine serum (Hyclone, Logan, Utah). Cells (2×10^6) were transfected with 2 μg of plasmid DNA with Effectene (Qiagen, Valencia, Calif.) according to the manufacturer's instructions, for 24 h. Before ligand binding and receptor activation assays, the cells were washed twice with serum-free DMEM and serum-starved for at least 6 h.
# (§2) S1P1 Receptor Activation Assays Receptor functional assays were performed in transiently transfected RH7777 cells by measuring S1P-activated [^35S]GTPγS binding as previously described (28).
# [2] = biological target: T2, S1P1 mutant F5.48Y (Homo sapiens, UniProt P21453, F210Y); assay: [35S]GTPγS binding, S1P1 F5.48Y; assay type: biochemical; details: S1P-induced, S1P1 F5.48Y in RH7777 cells
# T2 construct: expressed in transfected cells; host or cells: RH7777
# T2 sequence (P21453 whole entry F210Y): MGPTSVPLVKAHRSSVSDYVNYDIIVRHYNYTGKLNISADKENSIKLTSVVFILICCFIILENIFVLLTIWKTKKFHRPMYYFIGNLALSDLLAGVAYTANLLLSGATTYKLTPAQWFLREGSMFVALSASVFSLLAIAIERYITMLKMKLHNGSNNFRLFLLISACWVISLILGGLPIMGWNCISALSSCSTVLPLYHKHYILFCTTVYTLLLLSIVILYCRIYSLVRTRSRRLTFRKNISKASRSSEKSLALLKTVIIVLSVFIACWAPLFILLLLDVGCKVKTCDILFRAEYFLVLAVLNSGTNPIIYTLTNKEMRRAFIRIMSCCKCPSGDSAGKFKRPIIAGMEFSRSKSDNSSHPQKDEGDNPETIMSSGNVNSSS
# Description: as §1, §2
# [3] = biological target: S1P1 mutant L3.36E (Homo sapiens, UniProt P21453, L128E); assay: [32P]S1P competition binding, HEK-293 cells, L3.36E; parameters: expressed in transfected cells; details: S1P1 L3.36E
# Sequence of S1P1 mutant L3.36E (P21453 whole entry L128E): as the sequence (P21453 whole entry F210Y) above, with L128E, Y210F counted along it
# Description: (§3) For the competition assays, HEK-293 cells were used. Briefly, 4×10^5 cells were plated in 24-well dishes and allowed to adhere overnight. The cells were then transfected with 0.4 μg of the cDNA using Lipofectamine 2000 (Invitrogen) and the transfection proceeded for 48 h. After washing the cells twice with ice-cold binding buffer (20 mM Tris-HCl, pH 7.4 and 150 mM NaCl), 0.1 nM [^32P]S1P and competing concentrations of cold S1P (1 nM-10 μM), resuspended in binding buffer+4% BSA, were applied to the cells and incubated on ice for 30 min. After washing the cells twice with ice-cold binding buffer+0.4% BSA, the cells were lysed with 0.5% SDS and equilibrated in scintillation fluid. The samples were measured in triplicate.
# [4] = biological target: T3, S1P1 mutant F5.48G (Homo sapiens, UniProt P21453, F210G); assay: [32P]S1P radioligand binding, RH7777 cells, F5.48G; details: radioligand 50 nM, S1P1 F5.48G
# T3 construct: expressed in transfected cells
# T3 sequence (P21453 whole entry F210G): as the sequence (P21453 whole entry F210Y) above, with Y210G counted along it
# Description: as §1
# (§4) The S1P binding assays were done essentially as previously described (28). Transfected RH7777 cells (5×10^5) were incubated at 4° C. in 20 mM Tris-HCl (pH 7.5) binding buffer containing 100 mM NaCl, 15 mM NaF, protease inhibitor cocktail (Sigma-Aldrich), and 0.2 mg/ml essentially fatty-acid free BSA with 1 nM [^32P]S1P in 50 nM S1P for 40 min. Cells were centrifuged and washed twice in binding buffer. The final pellet was resuspended in 2:1 CHCl3/MeOH and the suspension was equilibrated in scintillation fluid overnight. Cell-bound radioactivity was measured by liquid scintillation counting using a Beckman LS5000 TA counter (Beckman Coulter, Irvine, Calif.). Specific binding was defined as the difference between total binding and non-specific binding (in the presence of 2-5 μM cold S1P). Standard errors were computed on the basis of triplicate samples from two simultaneous transfections.
# [5] = biological target: T4, S1P1 mutant I5.41A (Homo sapiens, UniProt P21453, I203A); assay: [35S]GTPγS binding, S1P1 I5.41A; assay type: biochemical; details: S1P-induced, S1P1 I5.41A in RH7777 cells
# T4 construct: expressed in transfected cells; host or cells: RH7777 (transient, pcDNA3.1)
# T4 sequence (P21453 whole entry I203A): as the sequence (P21453 whole entry F210Y) above, with I203A, Y210F counted along it
# Description: as §1, §2
# [6] = biological target: T5, S1P1 mutant V6.40L (Homo sapiens, UniProt P21453, V261L); assay: [32P]S1P radioligand binding, RH7777 cells, V6.40L; details: radioligand 50 nM, S1P1 V6.40L
# T5 construct: expressed in transfected cells; host or cells: RH7777
# T5 sequence (P21453 whole entry V261L): as the sequence (P21453 whole entry F210Y) above, with Y210F, V261L counted along it
# Description: as §1, §4
# [7] = biological target: T5, S1P1 mutant V6.40L; assay: [35S]GTPγS binding, S1P1 V6.40L; assay type: biochemical; details: S1P-induced, S1P1 V6.40L in RH7777 cells
# Description: as §1, §2
# [8] = biological target: T6, WT S1P1 (Homo sapiens, UniProt P21453); assay: [32P]S1P competition binding, HEK-293 cells, WT-S1P1; details: WT-S1P1, HEK-293 cells
# T6 sequence (P21453 whole entry): as the sequence (P21453 whole entry F210Y) above, with Y210F counted along it
# Description: as §3
# [9] = biological target: T7, S1P1 mutant F6.44Y (Homo sapiens, UniProt P21453, F265Y); assay: [35S]GTPγS binding, S1P1 F6.44Y; assay type: biochemical; details: S1P-induced, S1P1 F6.44Y in RH7777 cells
# T7 construct: expressed in transfected cells; host or cells: RH7777
# T7 sequence (P21453 whole entry F265Y): as the sequence (P21453 whole entry F210Y) above, with Y210F, F265Y counted along it
# Description: as §1, §2
# [10] = biological target: T8, S1P1 mutant C5.44D (Homo sapiens, UniProt P21453, C206D); assay: [35S]GTPγS binding, S1P1 C5.44D; assay type: biochemical; details: S1P-induced, S1P1 C5.44D in RH7777 cells
# T8 construct: expressed in transfected cells; host or cells: RH7777 (transient, pcDNA3.1)
# T8 sequence (P21453 whole entry C206D): as the sequence (P21453 whole entry F210Y) above, with C206D, Y210F counted along it
# Description: as §1, §2
# [11] = biological target: T6, WT S1P1; details: WT receptor, inventors' system (ref 28); read-out: apparent KD for S1P binding; cited from earlier work
# [12] = biological target: T9, S1P1 mutant K5.38A (Homo sapiens, UniProt P21453, K200A); assay: [35S]GTPγS binding, S1P1 K5.38A; assay type: biochemical; details: S1P-induced, S1P1 K5.38A in RH7777 cells
# T9 construct: expressed in transfected cells; host or cells: RH7777 (transient, pcDNA3.1)
# T9 sequence (P21453 whole entry K200A): as the sequence (P21453 whole entry F210Y) above, with K200A, Y210F counted along it
# Description: as §1, §2
# [13] = biological target: T10, S1P1 mutant L5.51G (Homo sapiens, UniProt P21453, L213G); assay: [35S]GTPγS binding, S1P1 L5.51G; assay type: biochemical; details: S1P-induced, S1P1 L5.51G in RH7777 cells
# T10 construct: expressed in transfected cells; host or cells: RH7777 (transient, pcDNA3.1)
# T10 sequence (P21453 whole entry L213G): as the sequence (P21453 whole entry F210Y) above, with Y210F, L213G counted along it
# Description: as §1, §2
# [14] = biological target: T11, S1P1 mutant T5.49S (Homo sapiens, UniProt P21453, T211S); assay: [35S]GTPγS binding, S1P1 T5.49S; assay type: biochemical; details: S1P-induced, S1P1 T5.49S in RH7777 cells
# T11 construct: expressed in transfected cells; host or cells: RH7777 (transient, pcDNA3.1)
# T11 sequence (P21453 whole entry T211S): as the sequence (P21453 whole entry F210Y) above, with Y210F, T211S counted along it
# Description: as §1, §2
# [15] = biological target: T12, S1P1 mutant F5.43Y (Homo sapiens, UniProt P21453, F205Y); assay: [35S]GTPγS binding, S1P1 F5.43Y; assay type: biochemical; details: S1P-induced, S1P1 F5.43Y in RH7777 cells
# T12 construct: expressed in transfected cells; host or cells: RH7777 (transient, pcDNA3.1)
# T12 sequence (P21453 whole entry F205Y): as the sequence (P21453 whole entry F210Y) above, with F205Y, Y210F counted along it
# Description: as §1, §2
# [16] = biological target: T13, S1P1 mutant V3.40L (Homo sapiens, UniProt P21453, V132L); assay: [35S]GTPγS binding, S1P1 V3.40L; assay type: biochemical; details: S1P-induced, S1P1 V3.40L in RH7777 cells
# T13 construct: expressed in transfected cells; host or cells: RH7777 (transient, pcDNA3.1)
# T13 sequence (P21453 whole entry V132L): as the sequence (P21453 whole entry F210Y) above, with V132L, Y210F counted along it
# Description: as §1, §2
# [17] = competition with cold S1P, read-out: KD + s.d.
# T1 sequence (P21453 whole entry L214A): as the sequence (P21453 whole entry F210Y) above, with Y210F, L214A counted along it
compound,measurement,setting,value
"CCCCCCCCCCCCC/C=C/[C@@H](O)[C@@H](N)COP(=O)(O)O [S1P, Sphingosine 1-phosphate]",% WT Emax + s.d.,[1],∞
same,EC50 + s.d.,[1],∞
same,% WT Emax + s.d.,[2],∞
same,EC50 + s.d.,[2],∞
same,Bmax,[3],1980 fmol
same,Kd,[3]; [17],27.8 nM
same,[32P]S1P binding relative to WT,[4],> 50 % of the WT
same,EC50,[5],157 nM
same,Emax,[5]; read-out: % WT Emax + s.d.,26%
same,[32P]S1P binding relative to WT,[6],> 50 % of the WT
same,% WT Emax + s.d.,[7],∞
same,EC50 + s.d.,[7],∞
same,Bmax,[8],2450 fmol
same,Kd,[8]; [17],38.7 nM
same,EC50,[9],3.7 ± 3.3 nM
same,Emax,[9]; read-out: % WT Emax + s.d.,37%
same,EC50,[10],79 ± 17 nM
same,Emax,[10]; read-out: % WT Emax + s.d.,85%
same,Kd,[11],36 ± 2 nM
same,EC50,[12],32.4 nM
same,Emax,[12]; read-out: % WT Emax + s.d.,97%
same,EC50,[13],2.6 ± 2.1 nM
same,Emax,[13]; read-out: % WT Emax + s.d.,46%
same,EC50,[14],6.6 nM
same,Emax,[14]; read-out: % WT Emax + s.d.,168%
same,EC50,[15],23 nM
same,Emax,[15]; read-out: % WT Emax + s.d.,90%
same,EC50,[16],7 ± 4.5 nM
same,Emax,[16]; read-out: % WT Emax + s.d.,55%
